From patent publication US11738002B2, “Methods of treating neurological and psychiatric disorders” (Sunovion Pharmaceuticals Inc., priority 2020, dated 2023) come the findings set out here.

Molecules are shown by their SMILES.

Series [1] deals with male SD rats trained to self-administer heroin. Kind of series: self-administration (heroin substitution) test. The note with it: Sprague-Dawley, rat, in vivo. The source says:
(§1) Experimentally naïve rats were housed individually in plastic cages containing bedding. Housing rooms were maintained under a 12/12-hour light/dark cycle at controlled ambient temperature and relative humidity. Animals were allowed to acclimate to laboratory conditions before the beginning of experiments and had free access to water. Access to food was restricted to facilitate training and maintenance of operant behavior with the exception of training of female rats in the MDMA drug discrimination study. Experiments were conducted in operant chambers (MED Associates, Inc., St. Albans, Vt., U.S.A.) located within sound-attenuating, ventilated cubicles. Each chamber was equipped with a stimulus light, lever(s) located near a food receptacle which was connected to a food pellet dispenser. Chambers used for reinstatement studies were also equipped with a Sonalert® tone generator.

The test system of series [2] is female Lister hooded rats. The note with it: rat, in vivo.
Description: as §1
The training substance was administered 15 minutes before the session. […] The percentage of total responses on the training drug-appropriate lever and response rates were calculated for each rat.

The test system of series [3] is Female Sprague Dawley Rats. Nature of the series: withdrawal-induced physical dependence study. The procedure:
Animals were not dosed during the withdrawal phase. Dosing in the morning was staggered such that every animal was observed individually on each day.
Body weights were recorded prior to each dosing session on Day −6 to Day 46 and in the morning during the withdrawal phase. Only body weight recorded prior to the morning dosing session was used for statistical analysis. Food and water intake were measured once daily in the morning from Day −6 to Day 46 just prior to dosing, and in the morning of the withdrawal phase. Body temperatures were measured once daily using a rectal probe from Day −6 to Day 46 just prior to dosing, and, immediately prior to body weight measurement during the withdrawal. A detailed observation checklist was used to record any physical or behavioral signs of pharmacological effect during dosing and of drug dependence in the withdrawal phase. Rats were observed on a workbench in their open topped home cages (in the holding room where they were kept throughout the study) for a 2 min period 1 hr after the morning dose during the baseline and dosing phases and twice daily on Day 46 and during the withdrawal phase. […] For all other endpoints, withdrawal begins on Day 47.

On to `CC(=O)Oc1ccc2c3c1O[C@H]1[C@@H](OC(C)=O)C=C[C@H]4[C@@H](C2)N(C)CC[C@@]341` [heroin], for which, in series [1], the “mean number of infusions, heroin acquisition session” value was found to be 19.0±0.4.

For `O=C1CC2(CCCC2)CC(=O)N1CCCCN1CCN(c2ncccn2)CC1` [buspirone], in series [2], the “generalization to MDMA” value came to 37.2±20.4% and the “weak partial generalization to the cue elicited by MDMA” value is on record as less than 50%.

For `CN1C(=O)CN=C(c2ccccc2)c2cc(Cl)ccc21` [diazepam], in series [3] (10/15/20 mg/kg p.o. b.i.d. on Days 1-5/6-18/19-46), the “weight of the rats vs vehicle at the end of the dosing phase” value was determined as 5.4%. Also, the “withdrawal signs on cessation of dosing” value in series [3] (10/15/20 mg/kg p.o. b.i.d., 46 days) is “Physical dependence was demonstrated”.
